Assay results from patent US10030027B2, “Soluble guanylate cyclase stimulators” (MERCK SHARP & DOHME CORP., priority 2015, dated 2018).

How the values were obtained:
[1] = molecular target: sGC α1/β1 heterodimer (Homo sapiens (Human), UniProt Q02108+Q02153); assay: Cell-based sGC functional assay (cyclic GMP assay for sGC activator: CASA assay); set-up: % Activation: concentration or dose not given beside the values; conditions: CHO-K1/sGC cells; for % Activation: activity expressed as percentage of compound A (standard); for EC50: inflection point, 4P fit, read-out: IP; for Emax: CHO-K1, activity expressed as percentage of compound A (standard), read-out: % Activation
In short: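 CHO-K1 cells stably expressing human sGC α1/β1 were pre-incubated 30 min at 25° C with or without 1 μM DETA-NO, then exposed to compound for 1 hr at 37° C with 0.5 mM IBMX and 2.5% DMSO final. Intracellular cGMP was measured by HTRF, expressed as % of reference sGC-HDA maximum; inflection point and maximum fold induction came from 4-parameter fits.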

[2] = molecular target: human recombinant sGC enzyme (Homo sapiens (Human), UniProt Q02108+Q02153); assay: Size Exclusion Chromatography (SEC) competition binding assay using [3H] Ex-77B as the radioligand; conditions: [3H] Ex-77B radioligand, 24 hours at 37° C.
In short: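 Recombinant human sGC binding measured by competition against tritiated Ex-77B radioligand, with non-specific binding defined by 1 μM unlabeled Ex-77B.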

[3] = tested on: Spontaneously hypertensive rats (SHR); assay: Acute efficacy in spontaneously hypertensive rats (SHR); format: in vivo, rat
Text: Acute Efficacy in Spontaneously Hypertensive Rats (SHR)
Spontaneously hypertensive rats (SHR, male, Charles River) were implanted with DSI TA11PA-C40 telemetry device (Data Sciences, Inc., St. Paul, Minn.) under isoflurane or ketamine/metomidine anesthesia. The telemetry unit catheter was inserted into the descending aorta via the femoral artery and the telemetry device was implanted subcutaneously in the left flank area. Animals were allowed to recover from surgery for 14 days before the start of any studies. Blood pressure, heart rate, and activity signals from conscious, freely moving rats were recorded continuously for 30 seconds every 10 minutes. On the day prior to administration of compound, a single oral dose of vehicle (10% transcutol/20% Cremophor/70% water) was administered to all animals to establish baseline control data. The blood pressure lowering efficacy of compound (PO) or vehicle was evaluated following a single oral gavage. Data were collected as hourly averages, and changes in blood pressure were calculated by subtracting control baseline data on an hourly basis. Animals were maintained on normal diet with a 12 hour light-dark cycle.
Maximum peak decreases of systolic blood pressure (SBP) in SHR at a particular P.O. dose (mpk milligrams per kilogram) for the following Example compounds are provided.

SMILES	% Activation [1] [%]	EC50 [1] [nM]	Ki [2] [nM]	Emax [1] [%]	Category: maximum peak decrease of systolic blood pressure (SBP) in SHR ([3]; Dose P.O. 1 mpk)	Category: maximum peak decrease of systolic blood pressure (SBP) in SHR ([3]; Dose P.O. 3 mpk)
CC(Cc1ccc(C2(C)C(=O)Nc3nc(-c4nn(CCC(F)(F)C(F)(F)F)c5cc(Cl)ccc45)nc(N)c32)cc1)C(=O)O (single isomer, unassigned) [Example 34AB, 3-(4-{4-amino-2-[6-chloro-1-(3,3,4,4,4-pentafluorobutyl)-1H-indazol-3-yl]-5-methyl-6-oxo-6,7-dihydro-5H-pyrrolo[2,3-d]pyrimidin-5-yl}phenyl)-2-methylpropanoic acid]	115	771	0.231		A (decrease in SBP in SHRs 5-25 mmHg)	
CCCCn1nc(-c2nc(N)c3c(n2)NC(=O)[C@@]3(C)c2ccc(CCC(=O)O)cc2)c2cccnc21 [Example 14B, (S)-3-(4-{4-amino-2-(1-butyl-1H-pyrazolo[3,4-b]pyridin-3-yl)-5-methyl-6-oxo-6,7-dihydro-5H-pyrrolo[2,3-d]pyrimidin-5-yl}phenyl)propanoic acid]		525	0.21	90		A (decrease in SBP in SHRs 5-25 mmHg)
C[C@@]1(c2ccc(CCC(=O)O)cc2)C(=O)Nc2nc(-c3nn(Cc4ccccc4F)c4ccccc34)nc(N)c21 [Example 76B, (S)-3-(4-{4-Amino-2-[1-(2-fluorobenzyl)-1H-indazol-3-yl]-5-methyl-6-oxo-6,7-dihydro-5H-pyrrolo[2,3-d]pyrimidin-5-yl}phenyl)propanoic acid]						B (decrease in SBP in SHRs 25-40 mmHg)
C[C@@]1(c2ccc(CCC(=O)O)cc2)C(=O)Nc2nc(-c3nn(CC45CC6CC(CC(C6)C4)C5)c4cc(Cl)ccc34)nc(N)c21 [Example 70B, (S)-3-(4-{2-[1-(adamantan-1-ylmethyl)-6-chloro-1H-indazol-3-yl]-4-amino-5-methyl-6-oxo-6,7-dihydro-5H-pyrrolo[2,3-d]pyrimidin-5-yl}phenyl)propanoic acid]		649		120		A (decrease in SBP in SHRs 5-25 mmHg)
C[C@@]1(c2ccc(CCC(=O)O)cc2)C(=O)Nc2nc(-c3nn(CCCC(F)(F)F)c4cc(Cl)ccc34)nc(N)c21 [Example 41B, (S)-3-(4-{4-amino-2-[6-chloro-1-(4,4,4-trifluorobutyl)-1H-indazol-3-yl]-5-methyl-6-oxo-6,7-dihydro-5H-pyrrolo[2,3-d]pyrimidin-5-yl}phenyl)propanoic acid]		779	0.717	85		
Cc1oc(C2(C)C(=O)Nc3nc(-c4nn(Cc5cccc(F)c5)c5cc(Cl)ccc45)nc(N)c32)nc1CC(C)(C)C(=O)O (centres unmarked) [Example 176B, 3-(2-{4-amino-2-[6-chloro-1-(3-fluorobenzyl)-1H-indazol-3-yl]-5-methyl-6-oxo-6,7-dihydro-5H-pyrrolo[2,3-d]pyrimidin-5-yl}-5-methyl-1,3-oxazol-4-yl)-2,2-dimethyl-propanoic acid]		1470	0.13	118		
C[C@@]1(c2ccc(CCC(=O)NCc3nn[nH]n3)cc2)C(=O)Nc2nc(-c3nn(Cc4ccccc4F)c4ncccc34)nc(N)c21 [Example 108B, (S)—N-((2H-Tetrazol-5-yl)methyl)-3-(4-{4-amino-2-[1-(2-fluorobenzyl)-1H-pyrazolo[3,4-b]pyridin-3-yl]-5-methyl-6-oxo-6,7-dihydro-5H-pyrrolo[2,3-d]pyrimidin-5-yl}phenyl)propanamide]		842	0.056	122		
C[C@@]1(c2ccc(CCC(=O)N[C@H](CO)C(=O)O)cc2)C(=O)Nc2nc(-c3nn(Cc4ccccc4F)c4ncccc34)nc(N)c21 [Example 106B, (5S)-(3-(4-{4-amino-2-[1-(2-fluorobenzyl)-1H-pyrazolo[3,4-b]pyridin-3-yl]-5-methyl-6-oxo-6,7-dihydro-5H-pyrrolo[2,3-d]pyrimidin-5-yl}phenyl)propanoyl)-D-serine]		1500	0.058	70		

Further lines, with some results ahead:

% Activation [1] [%]	EC50 [1] [nM]	Ki [2] [nM]	Emax [1] [%]	SMILES	Category: maximum peak decrease of systolic blood pressure (SBP) in SHR ([3]; Dose P.O. 1 mpk)	Category: maximum peak decrease of systolic blood pressure (SBP) in SHR ([3]; Dose P.O. 3 mpk)
	220	0.145	98	CCCCn1nc(-c2nc(N)c3c(n2)NC(=O)[C@@]3(C)c2ccc(CCC(=O)O)cc2)c2ccc(Cl)cc21 [Example 38B, (S)-3-{4-[4-amino-2-(1-butyl-6-chloro-1H-indazol-3-yl)-5-methyl-6-oxo-6,7-dihydro-5H-pyrrolo[2,3-d]pyrimidin-5-yl]phenyl}propanoic acid]		A (decrease in SBP in SHRs 5-25 mmHg)
81	437	0.138		CC(Cc1ccc(C2(C)C(=O)Nc3nc(-c4nn(CCC(F)(F)C(F)(F)F)c5cc(Cl)ccc45)nc(N)c32)cc1)C(=O)O (single isomer, unassigned) [Example 34AA, 3-(4-{4-amino-2-[6-chloro-1-(3,3,4,4,4-pentafluorobutyl)-1H-indazol-3-yl]-5-methyl-6-oxo-6,7-dihydro-5H-pyrrolo[2,3-d]pyrimidin-5-yl}phenyl)-2-methylpropanoic acid]		A (decrease in SBP in SHRs 5-25 mmHg)
	69	0.15	76.5	CC(C)(Cc1csc([C@]2(C)C(=O)Nc3nc(-c4nn(CC5CCCC5)c5cc(Cl)ccc45)nc(N)c32)n1)C(=O)O [Example 162A, (S)-3-(2-{4-amino-2-[6-chloro-1-(cyclopentyl-methyl)-1H-indazol-3-yl]-5-methyl-6-oxo-6,7-dihydro-5H-pyrrolo[2,3-d]pyrimidin-5-yl}-1,3-thiazol-4-yl)-2,2-dimethyl-propanoic acid]		
	403	0.121	94.8	CC(C)(Cc1csc([C@]2(C)C(=O)Nc3nc(-c4nn(Cc5ccccc5F)c5ncccc45)nc(N)c32)n1)c1nn[nH]n1 [Example 241A, (S)-4-amino-2-[1-(2-fluoro-benzyl)-1H-pyrazolo[3,4-b]pyridin-3-yl]-5-methyl-5-{4-[2-methyl-2-(2H-tetrazol-5-yl)propyl]-1,3-thiazol-2-yl}-5,7-dihydro-6H-pyrrolo[2,3-d] pyrimidin-6-one]		
	14	0.067	111	CC(C)(Cc1csc([C@]2(C)C(=O)Nc3nc(-c4nn(Cc5c(F)ccc(F)c5F)c5ccccc45)nc(N)c32)n1)C(=O)O [Example 224A, (S)-3-(2-{4-amino-5-methyl-6-oxo-2-[1-(2,3,6-trifluorobenzyl)-1H-indazol-3-yl]-6,7-dihydro-5H-pyrrolo[2,3-d]pyrimidin-5-yl}-1,3-thiazol-4-yl)-2,2-dimethyl-propanoic acid]		
	54	0.468	90.3	CC(C)(CCc1csc(C2(C)C(=O)Nc3nc(-c4nn(Cc5cccc(F)c5)c5cc(F)ccc45)nc(N)c32)n1)C(=O)O (centres unmarked) [Example 196A, 4-(2-{4-amino-2-[6-fluoro-1-(3-fluorobenzyl)-1H-indazol-3-yl]-5-methyl-6-oxo-6,7-dihydro-5H-pyrrolo[2,3-d]pyrimidin-5-yl}-1,3-thiazol-4-yl)-2,2-dimethyl-butanoic acid]		
	48	0.081	110	CC1(c2nc(-c3ccc(C(=O)O)cc3)cs2)C(=O)Nc2nc(-c3nn(Cc4ccccc4F)c4cc(Cl)ccc34)nc(N)c21 (centres unmarked) [Example 165A, 4-(2-{4-amino-2-[6-chloro-1-(2-fluorobenzyl)-1H-indazol-3-yl]-5-methyl-6-oxo-6,7-dihydro-5H-pyrrolo[2,3-d]pyrimidin-5-yl}-1,3-thiazol-4-yl) benzoic acid]		
	453	0.253	101	CC(C)(C)CCn1nc(-c2nc(N)c3c(n2)NC(=O)C3(C)c2nc(CC(C)(C)C(=O)O)co2)c2ccc(Cl)cc21 (centres unmarked) [Example 208A, 3-(2-{4-amino-2-[6-chloro-1-(3,3-dimethylbutyl)-1H-indazol-3-yl]-5-methyl-6-oxo-6,7-dihydro-5H-pyrrolo[2,3-d]pyrimidin-5-yl}-1,3-oxazol-4-yl)-2,2-dimethyl-propanoic acid]		
	185	0.258	143	CC1(c2ccc(/C=C/C(=O)O)cc2)C(=O)Nc2nc(-c3nn(CCC(F)(F)C(F)(F)F)c4cc(Cl)ccc34)nc(N)c21 (centres unmarked) [Example 157A, (2E)-3-(4-{4-amino-2-[6-chloro-1-(3,3,4,4,4-penta-fluorobutyl)-1H-indazol-3-yl]-5-methyl-6-oxo-6,7-dihydro-5H-pyrrolo[2,3-d]pyrimidin-5-yl}phenyl)prop-2-enoic acid]		
